Converted amounts (≈) assume the structure as drawn. Each block holds one molecule with its values, some of them ahead of it.
Experiments:
Colon 26 [1] = test: Antitumor activity against mouse Colon 26 cells xenografted in mouse assessed as tumor suppression rate at 40 mg/kg, po; format: functional
Tubulin = Tubulin (Bos taurus, UniProt Q6B856+Q862L2+Q862F3); test: Antitubulin activity against bovine brain tubulin polymerization by spectrophotometric method
Colon 26 [2] = test: Cytotoxicity against mouse Colon 26 cells assessed as inhibition of cell growth; format: functional, cell-based
Jurkat = test: Antiproliferative activity against human Jurkat cells assessed as reduction in cell viability incubated for 2 days by MTT assay; format: functional, cell-based; conditions: 48 h
MDA-MB-231 [3] = test: Antiproliferative activity against human MDA-MB-231 cells assessed as reduction in cell viability incubated for 2 days by MTT assay; format: functional, cell-based; conditions: MDA-MB-231, 48 h
MDA-MB-231 [4] = test: Antiproliferative activity against human MDA-MB-231 cell line assessed as cell growth inhibition by MTT assay; format: functional, cell-based
HeLa [5] = test: Antiproliferative activity against human HeLa cells assessed as cell growth inhibition by MTT assay; format: functional, cell-based
MDA-MB-231 [6] = test: Antiproliferative activity against human MDA-MB-231 cells assessed as reduction in cell growth after 72 hrs; format: functional, cell-based; conditions: MDA-MB-231, 72 h
HeLa [7] = test: Antiproliferative activity against human HeLa cells assessed as reduction in cell growth after 72 hrs; format: functional, cell-based
T47D = test: Cytotoxicity against human T47D cells; format: functional, cell-based
Enterobacter cloacae = test: Inhibition of Enterobacter cloacae Metallo-beta-lactamase IMP-1
SF-268 [8] = test: Cytotoxicity against human SF-268 cells assessed as reduction in cell viability by MTS assay; format: functional
NCI-H460 [9] = test: Cytotoxicity against human NCI-H460 cells assessed as reduction in cell viability by MTS assay; format: functional
MCF7 [10] = test: Cytotoxicity against human MCF7 cells assessed as reduction in cell viability by MTS assay; format: functional
HCT-116 [11] = test: Cytotoxicity against human HCT-116 cells assessed as reduction in cell viability by MTT assay; format: functional, cell-based
[12] = biological target: Epidermal growth factor receptor (Homo sapiens, UniProt P00533); test: Inhibition of EGFR (unknown origin)
Sequence of Epidermal growth factor receptor (P00533 whole entry): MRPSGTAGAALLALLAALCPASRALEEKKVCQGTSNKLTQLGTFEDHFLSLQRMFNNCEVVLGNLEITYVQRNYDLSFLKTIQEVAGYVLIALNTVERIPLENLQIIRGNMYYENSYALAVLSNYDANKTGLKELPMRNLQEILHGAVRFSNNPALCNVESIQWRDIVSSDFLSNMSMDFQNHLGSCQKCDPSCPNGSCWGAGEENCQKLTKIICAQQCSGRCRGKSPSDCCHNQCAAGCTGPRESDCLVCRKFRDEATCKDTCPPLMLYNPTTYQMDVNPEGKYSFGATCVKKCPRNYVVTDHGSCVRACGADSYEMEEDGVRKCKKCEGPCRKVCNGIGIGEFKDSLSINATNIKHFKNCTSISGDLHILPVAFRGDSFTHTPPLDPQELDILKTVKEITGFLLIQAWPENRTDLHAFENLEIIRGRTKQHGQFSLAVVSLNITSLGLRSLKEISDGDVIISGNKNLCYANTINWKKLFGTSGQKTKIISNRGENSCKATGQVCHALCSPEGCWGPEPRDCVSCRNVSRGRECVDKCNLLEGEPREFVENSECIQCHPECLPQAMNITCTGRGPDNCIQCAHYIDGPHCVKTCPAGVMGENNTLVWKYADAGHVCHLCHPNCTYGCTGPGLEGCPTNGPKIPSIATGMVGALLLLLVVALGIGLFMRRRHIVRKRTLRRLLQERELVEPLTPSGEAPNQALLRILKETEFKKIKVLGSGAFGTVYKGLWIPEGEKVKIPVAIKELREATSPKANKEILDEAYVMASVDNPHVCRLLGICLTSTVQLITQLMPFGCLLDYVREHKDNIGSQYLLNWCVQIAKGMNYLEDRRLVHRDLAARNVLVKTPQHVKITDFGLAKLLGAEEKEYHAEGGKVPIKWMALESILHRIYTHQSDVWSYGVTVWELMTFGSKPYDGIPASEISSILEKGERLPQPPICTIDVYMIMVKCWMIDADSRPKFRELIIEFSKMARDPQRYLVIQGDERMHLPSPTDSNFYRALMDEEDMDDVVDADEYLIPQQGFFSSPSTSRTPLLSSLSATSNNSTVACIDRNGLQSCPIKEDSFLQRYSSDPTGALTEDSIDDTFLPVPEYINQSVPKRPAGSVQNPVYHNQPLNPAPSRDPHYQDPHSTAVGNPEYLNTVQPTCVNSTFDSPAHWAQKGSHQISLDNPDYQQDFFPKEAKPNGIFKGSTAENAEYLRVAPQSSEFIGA

HeLa [13] = test: Cytotoxicity against human HeLa cells assessed as reduction in cell viability by MTT assay; format: functional, cell-based
MCF7 [14] = test: Cytotoxicity against human MCF7 cells assessed as reduction in cell viability by MTT assay; format: functional, cell-based
MDA-MB-231 [15] = test: Cytotoxicity against human MDA-MB-231 cells assessed as reduction in cell viability by MTT assay; format: functional, cell-based
SF-268 [16] = test: Antitumor activity against human SF-268 cells; format: functional
Ca-Ski = test: Anticancer activity against human Ca-Ski cells assessed as inhibition of cell growth; format: functional, cell-based
SK-NEP-1 = test: Anticancer activity against human SK-NEP-1 cells assessed as inhibition of cell growth; format: functional, cell-based
A549 [17] = test: Anticancer activity against human A549 cells; format: functional, cell-based
MCF7 [18] = test: Anticancer activity against human MCF7 cells; format: functional, cell-based
A549 [19] = test: Induction of apoptosis in human A549 cells assessed as early apoptotic cells for 24 hrs by FITC-annexin V/PI based flow cytometry; format: functional
A549 [20] = test: Induction of apoptosis in human A549 cells assessed as late apoptotic cells for 24 hrs by FITC-annexin V/PI based flow cytometry; format: functional
C6 [21] = test: Induction of apoptosis in rat C6 cells assessed as late apoptotic cells for 24 hrs by FITC-annexin V/PI based flow cytometry; format: functional
C6 [22] = test: Inhibition of Akt in rat C6 cells measured after 30 mins by ELISA analysis; format: cell-based
C6 [23] = test: Induction of apoptosis in rat C6 cells assessed as early apoptotic cells for 24 hrs by FITC-annexin V/PI based flow cytometry; format: functional
HL-60 = test: Cytotoxicity against human HL-60 cells; format: functional, cell-based
MDA-MB-435 = test: Cytotoxicity against human MDA-MB-435 cells; format: functional, cell-based
SF-295 = test: Cytotoxicity against human SF-295 cells; format: functional, cell-based
HT-29 = test: Cytotoxicity against human HT-29 cells; format: functional, cell-based
MKN-45 = test: Cytotoxicity against human MKN-45 cells; format: functional, cell-based
NCI-H460 [24] = test: Cytotoxicity against human NCI-H460 cells; format: functional, cell-based
[25] = Cytotoxicity against human U-87 MG cells; format: functional, cell-based, U-87MG ATCC
SMMC-7721 = test: Cytotoxicity against human SMMC-7721 cells; format: functional, cell-based
A549 [26] = test: Antiproliferative activity against human A549 cells; format: functional, cell-based
HeLa [27] = test: Cytotoxicity against human HeLa cells; format: functional, cell-based
MCF7 [28] = test: Cytotoxicity against human MCF7 cells; format: functional, cell-based
MG-63 = test: Cytotoxicity against human MG-63 cells; format: functional, cell-based
A549 [29] = test: Antiproliferative activity against human A549 cells assessed as reduction in cell viability; format: functional, cell-based
HepG2 = test: Anticancer activity against human HepG2 cells; format: functional, cell-based
HCT-116 [30] = test: Anticancer activity against human HCT-116 cells; format: functional, cell-based
K562 = test: Anticancer activity against human K562 cells; format: functional, cell-based
NCI-H460 [31] = test: Antitumor activity against human NCI-H460 cells; format: functional, cell-based
MCF7 [32] = test: Induction of apoptosis in human MCF7 cells assessed as dead cells at 10 uM measured after 6 hrs by annexin V-FITC/propidium iodide staining based flow cytometry analysis (reference value: 5.14+/-0.44%); format: functional
[33] = Anticancer activity against human PBMC cells; format: functional, cell-based
Cytochrome P450 = test: Inhibition of CYP450 in human liver microsomes; format: ADME, Microsome
[34] = test system: Panel NCI-60 (60 carcinoma cell lines); test: Antiproliferative activity against human Panel NCI-60 (60 carcinoma cell lines) assessed as cell growth inhibition; format: functional

Compound: COc1ccc(C2SC(N)=NC2c2cc(OC)c(OC)c(OC)c2)cc1N (centres undefined)
Activity (Colon 26 [1]): 75%
IC50 (Tubulin): 1 µM
IC50 (Colon 26 [2]): 0.0575 µM

Compound: Cc1ccc(Oc2ccc(-c3csc(N)n3)cc2)cc1
IC50 (T47D): 0.54 µM

Compound: C[C@@]1(O)[C@@H](COP(=O)(O)OP(=O)(O)OC[C@H]2O[C@@H](c3nc(C(N)=O)cs3)[C@H](O)[C@@H]2O)O[C@@H](n2cnc3c(N)ncnc32)[C@@H]1O
IC (Enterobacter cloacae): 0.52 µM

Compound: C/C(=N\N=c1/scc(-c2ccc(Cl)cc2)n1-c1ccccc1)C1CC[C@@]2(C)[C@]3(C)CC=C4C[C@@H](O)CC[C@]4(C)[C@@]3(C)CC[C@]12C (some centres undefined)
GI50 (SF-268 [8]): 0.8 µM
GI50 (NCI-H460 [9]): 0.2 µM
GI50 (MCF7 [10]): 0.2 µM

Compound: N#CC(C#N)=C1SC(n2nc(O)cc2N)=CN1c1ccccc1
GI50 (SF-268 [16]): 0.01 µM

Compound: N#Cc1ccc(Oc2ccc(/C=N/Nc3nc(-c4ccc(C#N)cc4)cs3)cc2)cc1
Activity (A549 [19]): 2.3%
Activity (A549 [20]): 36.5%
Activity (C6 [21]): 28.2%
inhibition (C6 [22]): 71.7%
Activity (C6 [23]): 4.6%

Compound: Cc1ccc2[nH]cc3c(=O)n(-c4nc5ccccc5s4)nc-3c2c1
IC50 (HL-60): < 5 µg/mL
IC50 (MDA-MB-435): < 5 µg/mL
IC50 (SF-295): < 5 µg/mL

Compound: CCOC(=O)/C(C(C)=O)=C1/SC=C(n2c(CC#N)nc3ccccc32)N1c1ccccc1
IC50 (HT-29): 0.23 µM
IC50 (MKN-45): 0.23 µM
IC50 (NCI-H460 [24]): 0.23 µM
IC50 [25]: 0.23 µM
IC50 (SMMC-7721): 0.23 µM
IC50 (A549 [26]): 0.23 µM

Compound: CC(=O)Nc1nc2ccc(NC(=O)Cc3c[nH]c4ccccc34)cc2s1
IC50 (HeLa [27]): 48 µM
IC50 (MCF7 [28]): 48 µM
IC50 (MG-63): 48 µM

Compound: COc1ccc(-c2csc(Nc3ccc(OC)cc3OC)n2)cc1
IC50 (A549 [29]): 0.86 µM

Compound: COc1ccc(-c2nn(-c3ccccc3)cc2/C=N/Nc2nc(-c3ccc(Cl)cc3)cs2)cc1
Activity (MCF7 [32]): 25.61%

Compound: Cc1ncc(C2=CCC3C4CC=C5CC(O)CCC5(C)C4CCC23C)s1 (centres undefined)
inhibition (INH) (Cytochrome P450): 72.1%

Compound: Cn1cc(-c2nc(-c3c[nH]c4ccccc34)cs2)c2cccnc21
GI50 [34]: 0.04 µM

Now from value to molecule, other results behind:

IC50 (Jurkat): 17 µM
IC50 (MDA-MB-231 [3]): 38 µM
Compound: CCC[C@H](NS(=O)(=O)c1ccc(C)cc1)[C@]1(c2ccccc2Cl)N=C(SCC)SC1=O

IC50 (MDA-MB-231 [4]): 3.92 µg/mL (≈ 18 µM)
IC50 (HeLa [5]): 11.4 µg/mL (≈ 52.5 µM)
IC50 (MDA-MB-231 [6]): 3.92 µg/mL (≈ 18 µM)
IC50 (HeLa [7]): 11.4 µg/mL (≈ 52.5 µM)
Compound: Cc1csc(N/N=C/c2ccccc2)n1

IC50 [12]: 8.28 µM
Compound: O=C(Nn1c(-c2ccc(Br)cc2)cs/c1=N\c1ccc([N+](=O)[O-])cc1)c1ccc(Cl)cc1
IC50 (HCT-116 [11]): 5.37 µM
IC50 (HeLa [13]): 5.37 µM
IC50 (MCF7 [14]): 5.37 µM
IC50 (MDA-MB-231 [15]): 5.37 µM

IC50 (SK-NEP-1): 9.6 µM
Compound: CO[C@@H]1C[C@H](C[C@@H](C)[C@@H](OC(=O)C2CCCCN2C)C(C)C)CC[C@H]1OCC/N=c1\sc2cc(Cl)ccc2n1C (some centres undefined)
IC50 (Ca-Ski): 8.3 µM

IC50 (A549 [17]): 5 µM
IC50 (MCF7 [18]): 5 µM
Compound: O=C(NNc1nc(-c2ccc3ccccc3c2)cs1)N1N=C(c2ccccc2)CC1c1ccc(Cl)cc1 (centres undefined)

IC50 (HepG2): 4.67 µM
IC50 (HCT-116 [30]): 3.81 µM
IC50 (K562): 12.4 µM
Compound: Nc1nc(-c2ccc(Oc3ccc(Cl)cc3)cc2)cs1
IC50 (T47D): 0.917 µM
IC50 (SMMC-7721): 1.61 µM

IC50 (NCI-H460 [31]): 1.3 µM
Compound: CCn1c(=O)/c(=C2\Sc3ccccc3N2C)s/c1=C\c1cccc[n+]1CC

IC50 [33]: > 30 µM
Compound: Clc1ccc(-c2csc(N/N=C/c3ccccn3)n2)cc1

IC50 (Jurkat): 19 µM
IC50 (MDA-MB-231 [3]): 41 µM
Compound: CCC[C@H](NS(=O)(=O)c1ccc(C)cc1)[C@]1(c2ccccc2Br)N=C(SCC)SC1=O

From ChEMBL document CHEMBL5244229, “Thiazole-containing compounds as therapeutic targets for cancer therapy” (Eur J Med Chem, 2020)
